From patent US20250049674A1, “COSMETIC OR DERMATOLOGICAL COMPOSITION COMPRISING AT LEAST A MEROCYANINE AND A HYDROTROPE” (L'OREAL, priority 2021, published 2025)
≈ marks a conversion by molar mass, not a printed value.

Assay: Water solubility of merocyanine (C)
Type: physicochemical
Settings: at 20° C.
Source text: It is therefore necessary to be able to formulate UV-screening agents of merocyanine type in an aqueous medium. In particular, for cosmetic quality and performance benefits, it is advantageous that this aqueous medium be a single-phase medium.

CCOCCOC(=O)/C(C#N)=C1\C=C(NCCCOC)CCC1 [Compound (C), 2-ethoxyethyl (2Z)-cyano{3-[(3-methoxypropyl)amino]cyclohex-2-en-1-ylidene}ethanoate]
solubility: ~500 µg/mL (≈ 1550 µM)
